Among the data in ChEMBL document CHEMBL1208707, “T-type calcium channel blockers: spiro-piperidine azetidines and azetidinones-optimization, design and synthesis” (Bioorg Med Chem Lett, 2010) are IC50 and inhibition values, retold here.

pIC50: −log10 of the molar value.

What all share (format): cell-based
Assay [1] concerns the target T1, Voltage-dependent T-type calcium channel subunit alpha-1H (Homo sapiens, UniProt O95180). Nature of the assay: Inhibition of human CaV3.2 expressed in HEK293 cells at -100 mV membrane potential by Ionworks HT assay.
The target in assay [2] is Transient receptor potential cation channel subfamily V member 1 (Homo sapiens) (UniProt Q8NER1). Briefly: Inhibition of TRPV1 expressed in HEK293 assessed as capsaicin activation cells at 3.3 ug/mL by FLIPR assay.
Chain of Transient receptor potential cation channel subfamily V member 1 (Homo sapiens) (Q8NER1 whole entry): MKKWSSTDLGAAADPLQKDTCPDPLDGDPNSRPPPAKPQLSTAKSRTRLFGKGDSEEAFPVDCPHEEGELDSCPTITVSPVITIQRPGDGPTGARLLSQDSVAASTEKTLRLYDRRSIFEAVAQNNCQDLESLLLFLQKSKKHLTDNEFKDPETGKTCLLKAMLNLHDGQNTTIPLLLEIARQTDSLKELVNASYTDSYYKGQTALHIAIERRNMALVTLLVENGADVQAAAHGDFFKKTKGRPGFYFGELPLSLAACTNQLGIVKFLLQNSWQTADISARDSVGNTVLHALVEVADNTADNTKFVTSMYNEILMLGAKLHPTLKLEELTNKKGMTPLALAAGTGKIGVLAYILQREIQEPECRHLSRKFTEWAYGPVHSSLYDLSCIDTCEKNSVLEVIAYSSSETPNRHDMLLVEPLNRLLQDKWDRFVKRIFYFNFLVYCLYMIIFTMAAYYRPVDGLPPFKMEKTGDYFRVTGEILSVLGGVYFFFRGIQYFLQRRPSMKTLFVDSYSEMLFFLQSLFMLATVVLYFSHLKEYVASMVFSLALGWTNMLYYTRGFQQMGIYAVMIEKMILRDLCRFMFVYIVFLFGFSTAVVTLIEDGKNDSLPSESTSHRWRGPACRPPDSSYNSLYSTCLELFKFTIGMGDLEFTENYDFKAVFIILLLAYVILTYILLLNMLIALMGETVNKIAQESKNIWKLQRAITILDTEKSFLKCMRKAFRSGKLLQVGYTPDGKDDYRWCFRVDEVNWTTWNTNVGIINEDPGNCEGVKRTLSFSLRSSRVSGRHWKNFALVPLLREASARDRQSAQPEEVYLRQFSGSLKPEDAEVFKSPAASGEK
In assay [3] the target is T1, Voltage-dependent T-type calcium channel subunit alpha-1H. Nature of the assay: Inhibition of human CaV3.2 expressed in HEK293 cells at -100 mV membrane potential by whole cell path clamp method.

T1 sequence (O95180 whole entry): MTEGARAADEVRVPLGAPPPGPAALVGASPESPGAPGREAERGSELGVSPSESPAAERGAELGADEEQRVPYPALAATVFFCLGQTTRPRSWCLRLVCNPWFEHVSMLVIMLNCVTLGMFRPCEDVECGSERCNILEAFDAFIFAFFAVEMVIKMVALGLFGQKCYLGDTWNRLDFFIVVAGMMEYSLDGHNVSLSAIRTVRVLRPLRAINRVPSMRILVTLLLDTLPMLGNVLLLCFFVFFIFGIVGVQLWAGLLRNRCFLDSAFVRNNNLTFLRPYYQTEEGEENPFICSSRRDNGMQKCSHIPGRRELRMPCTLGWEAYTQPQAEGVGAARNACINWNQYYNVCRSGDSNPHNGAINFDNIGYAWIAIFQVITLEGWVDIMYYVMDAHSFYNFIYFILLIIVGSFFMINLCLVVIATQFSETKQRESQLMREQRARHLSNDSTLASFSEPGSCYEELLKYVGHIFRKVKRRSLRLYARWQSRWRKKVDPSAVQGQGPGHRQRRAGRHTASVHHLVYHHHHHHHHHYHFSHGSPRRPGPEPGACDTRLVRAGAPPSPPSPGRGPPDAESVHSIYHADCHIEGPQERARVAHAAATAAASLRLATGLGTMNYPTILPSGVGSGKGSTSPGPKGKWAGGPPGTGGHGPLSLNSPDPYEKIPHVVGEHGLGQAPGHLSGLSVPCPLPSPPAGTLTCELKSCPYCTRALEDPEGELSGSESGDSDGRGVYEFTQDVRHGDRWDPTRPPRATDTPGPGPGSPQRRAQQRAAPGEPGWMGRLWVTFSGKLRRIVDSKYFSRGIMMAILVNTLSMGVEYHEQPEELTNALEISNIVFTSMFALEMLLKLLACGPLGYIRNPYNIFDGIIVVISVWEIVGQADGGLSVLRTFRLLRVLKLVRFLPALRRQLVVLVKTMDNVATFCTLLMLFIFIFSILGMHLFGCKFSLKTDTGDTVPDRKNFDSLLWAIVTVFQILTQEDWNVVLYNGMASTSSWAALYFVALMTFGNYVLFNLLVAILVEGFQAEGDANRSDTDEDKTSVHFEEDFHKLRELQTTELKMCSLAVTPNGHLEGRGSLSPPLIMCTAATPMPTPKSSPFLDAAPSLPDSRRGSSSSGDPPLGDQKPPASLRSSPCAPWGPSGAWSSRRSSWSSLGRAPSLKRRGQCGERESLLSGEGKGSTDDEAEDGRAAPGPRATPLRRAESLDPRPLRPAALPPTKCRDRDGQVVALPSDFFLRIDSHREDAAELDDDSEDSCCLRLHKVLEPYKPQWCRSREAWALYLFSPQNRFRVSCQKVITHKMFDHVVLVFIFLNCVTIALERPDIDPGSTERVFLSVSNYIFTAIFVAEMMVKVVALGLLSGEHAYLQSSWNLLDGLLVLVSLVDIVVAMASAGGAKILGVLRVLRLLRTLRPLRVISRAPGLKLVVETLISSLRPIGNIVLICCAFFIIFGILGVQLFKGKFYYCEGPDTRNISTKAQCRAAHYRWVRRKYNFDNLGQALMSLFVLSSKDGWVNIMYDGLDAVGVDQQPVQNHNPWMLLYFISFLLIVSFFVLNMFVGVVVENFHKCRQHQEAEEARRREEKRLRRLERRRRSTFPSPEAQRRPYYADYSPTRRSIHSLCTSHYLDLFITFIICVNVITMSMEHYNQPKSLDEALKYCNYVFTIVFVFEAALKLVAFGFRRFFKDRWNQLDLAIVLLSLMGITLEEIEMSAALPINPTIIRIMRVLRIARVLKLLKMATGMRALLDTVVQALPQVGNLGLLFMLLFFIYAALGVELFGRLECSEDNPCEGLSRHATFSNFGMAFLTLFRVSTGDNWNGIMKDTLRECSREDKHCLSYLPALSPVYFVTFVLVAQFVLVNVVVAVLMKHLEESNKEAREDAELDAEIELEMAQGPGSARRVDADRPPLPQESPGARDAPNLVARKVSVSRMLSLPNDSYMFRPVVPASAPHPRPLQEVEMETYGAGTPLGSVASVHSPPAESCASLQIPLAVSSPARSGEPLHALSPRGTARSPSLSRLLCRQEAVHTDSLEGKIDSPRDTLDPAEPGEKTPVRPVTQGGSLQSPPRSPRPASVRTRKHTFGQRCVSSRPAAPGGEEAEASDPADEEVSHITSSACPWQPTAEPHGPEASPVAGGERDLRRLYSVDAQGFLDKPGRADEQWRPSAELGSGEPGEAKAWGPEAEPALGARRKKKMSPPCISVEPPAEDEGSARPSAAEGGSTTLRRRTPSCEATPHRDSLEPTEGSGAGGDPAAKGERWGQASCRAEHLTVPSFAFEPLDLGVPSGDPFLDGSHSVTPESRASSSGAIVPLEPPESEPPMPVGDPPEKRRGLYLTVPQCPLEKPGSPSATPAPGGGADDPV

By pIC50 is commonly meant the negative decadic logarithm of the IC50, by convention in mol/L. As usually defined, the inhibition is the percentage by which the read-out fell short of the control. Turning to `CCC(C)NC(=O)N1CCC2(CC1)C(=O)N(c1cccc(F)c1)C2c1ccc(Cl)cc1` (stereo unspecified), the pIC50 in assay [1] was 5.90. For the same compound, in assay [2], the inhibition is 5.2%.
Turning to `O=C(Nc1ccc(F)c(F)c1)N1CCC2(CC1)C(=O)N(c1ccc(F)c(Cl)c1)C2c1ccccn1` (stereo in doubt; 40a), in assay [2], the inhibition turned out to be 48%.
Consider `CC[C@H](C)[C@H](NC(=O)N1CCC2(CC1)CN(C(C)C)C2c1ccc(Cl)cc1)C(=O)OC` (stereo in doubt; 2b), for which the figures for the negative-log IC50 (pIC50) in assay [1] and in assay [3] were 6.13 and 5.50, respectively.
For `O=C(Nc1cc(F)cc(F)c1)N1CCC2(CC1)CN(c1cccc(F)c1)C2c1ccc(Cl)cc1` (stereo in doubt; 35b) [listing 1 of 2 here], in assay [1], the pIC50 was 5.49.
For `O=C(Nc1cc(F)cc(F)c1)N1CCC2(CC1)C(=O)N(c1ccc(F)c(Cl)c1)C2c1ccccn1` (stereo in doubt; 39b), the pIC50 in assay [1] was 6.75.
In the case of `N#Cc1cccc(N2C(=O)C3(CCN(C(=O)Nc4cc(F)cc(F)c4)CC3)C2c2ccccn2)c1` (stereo unspecified), in assay [3], the pIC50 was 4.71.
Turning to `CC[C@H](C)[C@H](NC(=O)N1CCC2(CC1)C(=O)N(c1cccc(F)c1)C2c1ccc(Cl)cc1)C(=O)OC(C)C` (stereo partly specified), the inhibition in assay [2] turned out to be 18%.
On the same count and under the same terms, the figure for `O=C(Nc1cc(F)cc(F)c1)N1CCC2(CC1)C(=O)N(c1cccc(Cl)c1)C2c1ccccn1` (stereo in doubt; 44a) is 38%.
For the compound `O=C(Nc1cc(F)cc(F)c1)N1CCC2(CC1)CN(c1cccc(F)c1)C2c1ccc(Cl)cc1` (stereo in doubt; 35a) [listing 1 of 2 here], the pIC50 in assay [1] was 5.46.
As for `O=C(Nc1cc(F)cc(F)c1)N1CCC2(CC1)C(=O)N(C1CC1)C2c1ccc(Cl)cc1` (racemic), the pIC50 in assay [1] is 5.65. Further, the inhibition in assay [2] turned out to be 34.2%.
The like results for `CN1CC2(CCN(C(=O)Nc3cc(F)cc(F)c3)CC2)C1c1ccc(Cl)cc1` (racemic) were, in that order, 6.67 and 25%.
On to `CC[C@H](C)[C@H](NC(=O)N1CCC2(CC1)CN(C(C)C)C2c1ccc(F)cc1)C(=O)OC` (mixture of isomers), for which, in assay [1], the pIC50 is 6.59. Besides, in assay [2], the inhibition came to 13.4%.
With `O=C(Nc1cccc(C(F)(F)F)c1)N1CCC2(CC1)C(=O)N(c1ccc(F)c(F)c1)C2c1ccccn1` (stereo in doubt; 41a), the pIC50 in assay [1] was 7.77.
Consider `CC(C)CN1CC2(CCN(C(=O)Nc3cc(F)cc(F)c3)CC2)C1c1ccc(Cl)cc1` (racemic), for which the pIC50 in assay [1] was 6.75. Further, the inhibition in assay [2] was found to be 53%.
Take `O=C(Nc1cc(F)cc(F)c1)N1CCC2(CC1)CN(c1cccc(F)c1)C2c1ccc(Cl)cc1` (stereo in doubt; 35b) [listing 2 of 2 here]: the inhibition in assay [2] came to 30.1%.
Consider `CC[C@H](C)[C@H](NC(=O)N1CCC2(CC1)C(=O)N(c1cccc(F)c1)C2c1ccc(Cl)cc1)C(=O)NC` (stereo partly specified), for which the inhibition in assay [2] is 4.8%.
With `CC[C@H](C)[C@H](NC(=O)N1CCC2(CC1)CN(C(C)C)C2c1ccc(Cl)cc1)C(=O)OC` (stereo in doubt; 2), in assay [2], the inhibition is 87.1%.
Still for that read-out and setting: the figure for `N#Cc1cccc(NC(=O)N2CCC3(CC2)C(=O)N(c2cccc(Cl)c2)C3c2ccccn2)c1` (stereo in doubt; 43a) is 30%; for `N#Cc1cccc(NC(=O)N2CCC3(CC2)C(=O)N(c2cccc(F)c2)C3c2ccc(Cl)cc2)c1` (stereo in doubt; 37a) it is 4.79%.
As for `N#Cc1cccc(NC(=O)N2CCC3(CC2)C(=O)N(c2cccc(F)c2)C3c2ccc(Cl)cc2)c1` (stereo in doubt; 37b) [listing 1 of 2 here], the inhibition in assay [2] came out at 12.7%.
Take `COC(=O)[C@H](CO)NC(=O)N1CCC2(CC1)C(=O)N(c1cccc(F)c1)C2c1ccc(Cl)cc1` (stereo partly specified): the pIC50 in assay [1] is 5.48. Moreover, the inhibition in assay [2] worked out at 6%.
`O=C(Nc1ccc(F)c(F)c1)N1CCC2(CC1)C(=O)N(c1cccc(Cl)c1)C2c1cccc[n+]1[O-]` (stereo in doubt; form 2): in assay [1], the negative logarithm of the IC50 (pIC50) is 5.82.
The same measure, in the same setting: the figure for `O=C(Nc1ccc(F)c(F)c1)N1CCC2(CC1)C(=O)N(c1ccc(F)c(Cl)c1)C2c1ccccn1` (stereo in doubt; 40b) [listing 1 of 2 here] is 6.40; for `CC[C@H](C)[C@H](NC(=O)N1CCC2(CC1)CN(c1cccc(F)c1)C2c1ccc(Cl)cc1)C(=O)OC` (stereo in doubt; 22b) [listing 1 of 2 here] it is 5.49; for `CC[C@H](C)[C@H](NC(=O)N1CCC2(CC1)C(=O)N(c1cccc(F)c1)C2c1ccc(Cl)cc1)C(=O)OC` (stereo in doubt; 23b) [listing 1 of 2 here] it is 6.06.
On to `CC[C@H](C)[C@H](NC(=O)N1CCC2(CC1)CN(c1cccc(F)c1)C2c1ccc(Cl)cc1)C(=O)OC` (stereo in doubt; 22a) [listing 1 of 2 here], for which the pIC50 in assay [1] is 6.84.
In the case of `O=C(Nc1cc(F)cc(F)c1)N1CCC2(CC1)CN(c1cccc(F)c1)C2c1ccc(Cl)cc1` (stereo in doubt; 35a) [listing 2 of 2 here], the inhibition in assay [2] amounted to 6.22%.
Consider `N#Cc1cccc(N2C(=O)C3(CCN(C(=O)Nc4cc(F)cc(F)c4)CC3)C2c2ccccn2)c1` (racemic), for which the pIC50 in assay [1] was 5.62.
Turning to `O=C(Nc1cc(F)cc(F)c1)N1CCC2(CC1)C(=O)N(c1cccc(F)c1)C2c1ccc(Cl)cc1` (stereo in doubt; 36a) [listing 1 of 2 here], the pIC50 in assay [1] is 6.23.
In the case of `O=C(Nc1cc(F)cc(F)c1)N1CCC2(CC1)C(=O)N(c1cccc(F)c1)C2c1ccc(Cl)cc1` (stereo in doubt; 36b), the inhibition in assay [2] is 6.79%.
On the same count and under the same terms, the figure for `O=C(Nc1ccc(F)c(F)c1)N1CCC2(CC1)C(=O)N(c1cccc(Cl)c1)C2c1ccccn1` (stereo in doubt; 42b) is 89%.
Still for that read-out and setting: the figure for `O=C(Nc1cc(F)cc(F)c1)N1CCC2(CC1)C(=O)N(c1cncc(Cl)c1)C2c1ccccn1` (racemic) is 6.7%; for `CC[C@H](C)[C@H](NC(=O)N1CCC2(CC1)C(=O)N(c1cccc(F)c1)C2c1ccc(Cl)cc1)C(=O)OC` (stereo in doubt; 23b) [listing 2 of 2 here] it is 8.79%; for `O=C(Nc1ccc(F)c(F)c1)N1CCC2(CC1)C(=O)N(c1ccc(F)c(Cl)c1)C2c1ccccn1` (stereo in doubt; 40b) [listing 2 of 2 here] it is 39%.
Turning to `CC[C@H](C)[C@H](NC(=O)N1CCC2(CC1)C(=O)N(c1cccc(F)c1)C2c1ccc(Cl)cc1)C(=O)OC` (stereo in doubt; 23a), the inhibition in assay [2] came to 6.18%.
Consider `O=C(Nc1cc(F)cc(F)c1)N1CCC2(CC1)C(=O)N(c1cccc(F)c1)C2c1ccc(Cl)cc1` (stereo in doubt; 36a) [listing 2 of 2 here], for which, in assay [2], the inhibition was determined as 19.3%.
For the compound `CC[C@H](C)[C@H](NC(=O)N1CCC2(CC1)CN(c1cccc(F)c1)C2c1ccc(Cl)cc1)C(=O)OC` (stereo in doubt; 22b) [listing 2 of 2 here], in assay [2], the inhibition worked out at 12.5%.
Take `COC(=O)[C@H](COC(C)(C)C)NC(=O)N1CCC2(CC1)C(=O)N(c1cccc(F)c1)C2c1ccc(Cl)cc1` (stereo partly specified): the inhibition in assay [2] turned out to be 4.4%.
In the case of `CC[C@H](C)[C@H](NC(=O)N1CCC2(CC1)C(=O)N(C)C2c1ccc(Cl)cc1)C(=O)OC` (mixture of isomers), the pIC50 in assay [1] was 6.10. In addition, in assay [2], the inhibition was 3.12%.
Take `N#Cc1cccc(NC(=O)N2CCC3(CC2)C(=O)N(c2cccc(F)c2)C3c2ccc(Cl)cc2)c1` (stereo in doubt; 37b) [listing 2 of 2 here]: the pIC50 in assay [1] is 5.97.
Turning to `CC[C@H](C)[C@H](NC(=O)N1CCC2(CC1)CN(c1cccc(F)c1)C2c1ccc(Cl)cc1)C(=O)OC` (stereo in doubt; 22a) [listing 2 of 2 here], the inhibition in assay [2] was 8.5%.
Consider `CC[C@H](C)[C@H](NC(=O)N1CCC2(CC1)CN(C)C2c1ccc(Cl)cc1)C(=O)OC` (mixture of isomers), for which the pIC50 in assay [1] is 6.39. The inhibition in assay [2] is 25.2%.
